Reference: patent US20230279025A1, “KRAS G12D INHIBITORS” (Mirati Therapeutics, Inc., priority 2020, published 2023)
Counter-ions that a name gives are not always drawn. Like-named read-outs stand apart in the source and are kept apart here.

What was measured:
[1] = system: KRas G12D-mediated phosphorylation of ERK in AGS cells (ATCC CRL-1739) expressing G12D; assay: Inhibition of KRas G12D-mediated Phosphorylation of ERK in AGS cells; type: cell-based; conditions: Homo sapiens
Method: Cells were plated in tissue culture treated 96 well plates at a density of 40,000 cells/well and allowed to attach for 12-14 hours. Diluted compounds were then added in a final concentration of 0.5% DMSO. After 3 hours, the medium was removed, 150 μL of 4.0% formaldehyde was added and the plates incubated at room temperature for 20 minutes. The plates were washed with PBS, and permeabilized with 150 μL of ice cold 100% methanol for 10 minutes. Non-specific antibody binding to the plates was blocked using […] Licor blocking buffer (Li-Cor Biotechnology, Lincoln Nebr.) for 1 hour at room temperature.
The amount of phospho-ERK was determined using an antibody specific for the phosphorylated form of ERK and compared to the amount of GAPDH. Primary antibodies used for the detection were added as follows: Phospho-ERK(Cell Signaling cs-9101) diluted 1:500 and GAPDH(Millipore MAB374) diluted 1:5000 in Licor block+0.05% Tween 20. The plates were incubated for 2 hours at room temperature. The plates were washed with PBS+0.05% Tween 20.
Secondary antibodies used to visualize primary antibodies were added as follows: Anti-rabbit-680 diluted 1:1000 and Anti-mouse-800 diluted 1:1000 both in Licor block+0.05% TweeN20, and were incubated for 1 hour at room temperature. The plates were washed with PBS +0.05% Tween 20. A 100 μL aliquot of PBS was added to each well and the plates were read on a Li-Cor Odyssey CLX plate reader.

[2] = target: T1, KRas G12D (Homo sapiens (Human), UniProt P01116, G12D); assay: KRas G12D Binding Assay (TR-FRET displacement of Cy5 labelled tracer); conditions: GDP-loaded KRAS G12D (amino acids 1:169), 60 minute incubation at 22° C.
Method: After a 60 minute incubation at 22° C., the reaction was measured using a PerkinElmer EnVision multimode plate reader via TR-FRET dual wavelength detection, and the percent of control (POC) calculated using a ratiometric emission factor. […] The POC values were fit to a 4-parameter logistic curve and the IC50 value was determined as the concentration where the curve crosses 50 POC.
ND stands for “not determined.”
Target sequence in this assay (P01116 other isoform, or with tags, fused parts or gaps G12D): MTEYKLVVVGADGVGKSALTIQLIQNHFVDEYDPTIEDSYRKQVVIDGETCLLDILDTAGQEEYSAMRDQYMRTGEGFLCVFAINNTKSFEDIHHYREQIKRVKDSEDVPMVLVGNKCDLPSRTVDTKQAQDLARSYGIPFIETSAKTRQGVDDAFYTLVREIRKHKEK

[3] = target: T1, KRas G12D; assay: KRas G12D Surface Plasmon Resonance (SPR) Binding Assay; conditions: Biacore T200, immobilized biotinylated KRAS protein, 1:1 binding model
Target sequence in this assay (P01116-2 other isoform, or with tags, fused parts or gaps G12D): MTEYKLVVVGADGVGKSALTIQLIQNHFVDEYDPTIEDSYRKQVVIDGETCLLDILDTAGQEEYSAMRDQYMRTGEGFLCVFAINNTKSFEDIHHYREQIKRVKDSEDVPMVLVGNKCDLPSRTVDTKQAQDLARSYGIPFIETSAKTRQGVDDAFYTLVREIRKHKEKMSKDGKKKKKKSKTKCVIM

[4] = phospho-ERK(Thr202/Tyr204) normalized to GAPDH, AGS cells, 3 hours, read-out: IC50

| SMILES | IC50 [1, 4] [nM] | IC50 [2] [nM] | IC50 ([1]; AGS, 3 h) [nM] | Kd [3] [nM] |
| --- | --- | --- | --- | --- |
| Cc1cc2[nH]ncc2c(-c2ncc3c(N4C[C@H]5CC[C@@H](C4)N5)nc(OCC45CCCN4CC(F)C5)nc3c2F)c1Cl (mixture of isomers) [Example 376, 4-((1R,5S)-3,8-diazabicyclo[3.2.1]octan-3-yl)-7-(5-chloro-6-methyl-1H-indazol-4-yl)-8-fluoro-2-((2-fluorotetrahydro-1H-pyrrolizin-7a(5H)-yl)methoxy)pyrido[4,3-d]pyrimidine] | 582 | – | – | – |
| CCc1cccc2cccc(-c3ncc4c(N5CC6CCC(C5)N6)nc(OC[C@]56CCCN5[C@@H](COC(=O)N5CCOCC5)CC6)nc4c3F)c12 (single isomer, unassigned) [Example 431] | 74.3 | 1.4 | – | – |
| CCc1cccc2cccc(-c3ncc4c(N5CC6CCC(C5)N6)nc(OC[C@]56CCCN5[C@@H](COC(=O)NC)CC6)nc4c3F)c12 (single isomer, unassigned) [Example 432] | 106 | 1.9 | – | – |
| Fc1c(-c2cccc3cccc(Cl)c23)ncc2c(N3C[C@H]4CC[C@@H](C3)N4)nc(OCCCN3C[C@@H]4C[C@H]3CO4)nc12 [Example 103, (1S,4S)-5-(3-((4-((1R,5S)-3,8-diazabicyclo[3.2.1]octan-3-yl)-7-(8-chloronaphthalen-1-yl)-8-fluoropyrido[4,3-d]pyrimidin-2-yl)oxy)propyl)-2-oxa-5-azabicyclo[2.2.1]heptane] | > 16700 | – | – | – |
| CN1C[C@H](Oc2cccc(S(=O)(=O)F)c2)C[C@H]1COc1nc(N2C[C@H]3CC[C@@H](C2)N3)c2cnc(-c3cccc4cccc(Cl)c34)c(F)c2n1 [Example 208, 3-(((3R,5S)-5-(((4-((1R,5S)-3,8-diazabicyclo[3.2.1]octan-3-yl)-7-(8-chloronaphthalen-1-yl)-8-fluoropyrido[4,3-d]pyrimidin-2-yl)oxy)methyl)-1-methylpyrrolidin-3-yl)oxy)benzenesulfonyl fluoride tris 2,2,2-trifluoroacetate] | – | 1840 | > 16700 | – |
| CN1C[C@H](Oc2ccc(S(=O)(=O)F)cc2)C[C@H]1COc1nc(N2C[C@H]3CC[C@@H](C2)N3)c2cnc(-c3cccc4cccc(Cl)c34)c(F)c2n1 [Example 209, 4-(((3R,5S)-5-(((4-((1R,5S)-3,8-diazabicyclo[3.2.1]octan-3-yl)-7-(8-chloronaphthalen-1-yl)-8-fluoropyrido[4,3-d]pyrimidin-2-yl)oxy)methyl)-1-methylpyrrolidin-3-yl)oxy)benzenesulfonyl fluoride tris(2,2,2-trifluoroacetate)] | – | 2750 | > 16700 | – |
| CN1CC[C@H](Oc2cccc(S(=O)(=O)F)c2)[C@H]1COc1nc(N2C[C@H]3CC[C@@H](C2)N3)c2cnc(-c3cccc4cccc(Cl)c34)c(F)c2n1 [Example 210, 3-(((2R,3S)-2-(((4-((1R,5S)-3,8-diazabicyclo[3.2.1]octan-3-yl)-7-(8-chloronaphthalen-1-yl)-8-fluoropyrido[4,3-d]pyrimidin-2-yl)oxy)methyl)-1-methylpyrrolidin-3-yl)oxy)benzenesulfonyl fluoride tris(2,2,2-trifluoroacetate)] | – | 5460 | > 16700 | – |
| CO[C@@H]1CN2CCC[C@]2(COc2nc(N3C[C@H]4CC[C@@H](C3)N4)c3cnc(-c4cccc5cccc(Cl)c45)c(F)c3n2)C1 [Example 219, 4-((1R,5S)-3,8-diazabicyclo[3.2.1]octan-3-yl)-7-(8-chloronaphthalen-1-yl)-8-fluoro-2-((2-methoxytetrahydro-1H-pyrrolizin-7a(5H)-yl)methoxy)pyrido[4,3-d]pyrimidine bis-hydrochloride] | – | 8.1 | – | 8.1 |
| Cc1cccc(F)c1-c1ncc2c(N3C[C@H]4CC[C@@H](C3)N4)nc(OCCc3nccn3C)nc2c1F [Example 316, 4-((1R,5S)-3,8-diazabicyclo[3.2.1]octan-3-yl)-8-fluoro-7-(2-fluoro-6-methylphenyl)-2-(2-(1-methyl-1H-imidazol-2-yl)ethoxy)pyrido[4,3-d]pyrimidine] | – | > 10000 | – | 157000 |
| COc1nc(N2C[C@H]3CC[C@@H](C2)N3)c2cnc(-c3cccc4cccc(C)c34)c(F)c2n1 [Example 317, 4-((1R,5S)-3,8-diazabicyclo[3.2.1]octan-3-yl)-8-fluoro-2-methoxy-7-(8-methylnaphthalen-1-yl)pyrido[4,3-d]pyrimidine] | – | > 10000 | – | 91300 |
| CN1CCC[C@H]1COc1nc(N2CC3CCC(C2)N3)c2cnc(-c3cccc4c3CCC4O)c(F)c2n1 (stereo partly drawn) [Example 318, 4-(4-((1R,5S)-3,8-diazabicyclo[3.2.1]octan-3-yl)-8-fluoro-2-(((S)-1-methylpyrrolidin-2-yl)methoxy)pyrido[4,3-d]pyrimidin-7-yl)-2,3-dihydro-1H-inden-1-ol] | – | > 10000 | – | 368000 |
| CCOC(=O)CCCOc1nc(N2C[C@H]3CC[C@@H](C2)N3)c2cnc(-c3cccc4cccc(Cl)c34)c(F)c2n1 [Example 319, Ethyl 4-((4-((1R,5S)-3,8-diazabicyclo[3.2.1]octan-3-yl)-7-(8-chloronaphthalen-1-yl)-8-fluoropyrido[4,3-d]pyrimidin-2-yl)oxy)butanoate] | – | > 10000 | – | 256000 |
| O=Cc1cc(CCCOc2nc(N3C[C@H]4CC[C@@H](C3)N4)c3cnc(-c4cccc5cccc(Cl)c45)c(F)c3n2)ccc1O [Example 320, 5-(3-((4-((1R,5S)-3,8-diazabicyclo[3.2.1]octan-3-yl)-7-(8-chloronaphthalen-1-yl)-8-fluoropyrido[4,3-d]pyrimidin-2-yl)oxy)propyl)-2-hydroxybenzaldehyde] | – | > 10000 | – | 71600 |
| O[C@@H]1C[C@@H]2CN(c3nc(OC[C@@]45CCCN4C[C@H](F)C5)nc4c(F)c(-c5cccc6cccc(Cl)c56)ncc34)C[C@H]1N2 [Example 395, (1R,5R,6R)-3-(7-(8-chloronaphthalen-1-yl)-8-fluoro-2-((2-fluorotetrahydro-1H-pyrrolizin-7a(5H)-yl)methoxy)pyrido[4,3-d]pyrimidin-4-yl)-3,8-diazabicyclo[3.2.1]octan-6-ol] | – | 6.9 | – | 2.6 |
| Fc1c(-c2cccc3cccc(Cl)c23)ncc2c(N3CC4CC(F)C(C3)N4)nc(OC[C@@]34CCCN3C[C@H](F)C4)nc12 (some centres unmarked) [Example 396, 7-(8-chloronaphthalen-1-yl)-8-fluoro-4-(6-fluoro-3,8-diazabicyclo[3.2.1]octan-3-yl)-2-((2-fluorotetrahydro-1H-pyrrolizin-7a(5H)-yl)methoxy)pyrido[4,3-d]pyrimidine] | – | 207 | – | 34.8 |
| CO[C@@H]1C[C@@H]2CN(c3nc(OC[C@@]45CCCN4C[C@H](F)C5)nc4c(F)c(-c5cccc6cccc(Cl)c56)ncc34)C[C@H]1N2 [Example 397, 7-(8-chloronaphthalen-1-yl)-8-fluoro-2-((2-fluorotetrahydro-1H-pyrrolizin-7a(5H)-yl)methoxy)-4-((1R,5R,6R)-6-methoxy-3,8-diazabicyclo[3.2.1]octan-3-yl)pyrido[4,3-d]pyrimidine] | – | 887 | – | 183 |
| CCc1cccc2cc(O)cc(-c3ncc4c(N5C[C@H]6CC[C@@H](C5)N6)nc(OC[C@]56CCCN5C[C@@H](F)C6)nc4c3F)c12 [Example 468, 4-(4-((1R,5S)-3,8-diazabicyclo[3.2.1]octan-3-yl)-8-fluoro-2-(((2S,7aR)-2-fluorohexahydro-1H-pyrrolizin-7a-yl)methoxy)pyrido[4,3-d]pyrimidin-7-yl)-5-ethylnaphthalen-2-ol] | 28.8 | < 0.002 | – | – |
| C#Cc1c(F)ccc2cc(O)cc(-c3ncc4c(N5C[C@H]6CC[C@@H](C5)N6)nc(OC[C@@]56CCCCN5C[C@H](F)C6)nc4c3F)c12 [Example 469, 4-(4-((1R,5S)-3,8-diazabicyclo[3.2.1]octan-3-yl)-8-fluoro-2-(((2R,8aS)-2-fluorooctahydroindolizin-8a-yl)methoxy)pyrido[4,3-d]pyrimidin-7-yl)-5-ethynyl-6-fluoronaphthalen-2-ol] | 31.6 | < 0.002 | – | – |
| C#Cc1c(F)ccc2cc(O)cc(-c3ncc4c(N5C[C@H]6CC[C@@H](C5)N6)nc(OC[C@]56CCCN5C[C@@H](F)C6)nc4c3F)c12 [Example 482, 4-(4-((1R,5S)-3,8-diazabicyclo[3.2.1]octan-3-yl)-8-fluoro-2-(((2S,7aR)-2-fluorohexahydro-1H-pyrrolizin-7a-yl)methoxy)pyrido[4,3-d]pyrimidin-7-yl)-5-ethynyl-6-fluoronaphthalen-2-ol] | 3.4 | – | – | – |
